Experimental data taken from patent US20220211796A1, “PEPTIDE ANTIBIOTICS AND METHODS OF USE THEREOF” (priority 2019, published 2022).
In brackets after ≈: the same amount, converted by molar mass. Numbered stars: 1 amine (or outer) side, 2 acyl side, 3 side chain; on linkers, the order of the positions; unused ones are H or OH. Bridge positions count the residues as written; N and C are the ends. Square brackets hold non-standard residues; d marks the D form. Ends that are not written are not given here. Peptide text beside a SMILES is read from it. TBMB = c1c(C[*:1])cc(C[*:3])cc1C[*:2]

Experiments:
[1] = tested on: Methicillin-resistant S. aureus (MRSA) ATCC 43300; experiment: microbe, parasite or virus in culture
Protocol: (§1) The L-peptides identified from five different phage display libraries were catalogued as described previously and selected sequences were synthesized in D-enantiomeric form by SPPS for further investigation in several biological assays.
(§2) MICs were determined according to a 96-well microdilution protocol outlined by the Clinical and Laboratory Standard Institute (CLSI) guideline with modifications for peptide antibiotics reported by Wiegand et al.^35 Two-fold serial peptide dilutions were performed to go from 2560 μg/ml to 5 μg/ml in0.2% BSA and 0.01% acetic acid buffer in 96-well polypropylene plates (COSTAR, #3879). Dilution of bacterial suspensions (1:200) of different bacterial strains that were grown until 0.5 McFarland standard were prepared to obtain a final inoculum concentration of 8×10^5 CFU/ml in Mueller-Hinton broth.

[2] = tested on: high level vancomycin resistant E. faecium (vanA) ATCC 51559; experiment: microbe, parasite or virus in culture
Protocol: as §1, §2

[3] = tested on: B. subtilis ATCC 6633; experiment: microbe, parasite or virus in culture
Protocol: as §1, §2

[4] = tested on: S. aureus ATCC 6538; experiment: microbe, parasite or virus in culture
Protocol: as §1, §2

[5] = tested on: E. coli ATCC 25992; experiment: microbe, parasite or virus in culture
Protocol: as §1, §2

[6] = tested on: E. faecalis ATCC 29121; experiment: microbe, parasite or virus in culture
Protocol: as §1, §2

[7] = tested on: low level vancomycin resistant E. faecium (vanB) ATCC 51299; experiment: microbe, parasite or virus in culture
Protocol: as §1, §2

[8] = tested on: several Gram-positive strains (with one Gram-negative strain as control); experiment: MIC / antibiotic susceptibility, strains not singled out; type: cell-based; details: vancomycin-sensitive bacteria
Protocol: as §1, §2

[9] = tested on: human red blood cells (hRBC); experiment: Hemolytic activity; type: cell-based; details: concentrations up to 256 μg/ml
Protocol: Fresh red human blood cells (hRBC) were washed and centrifuged at 3000 rpm for 5 min at 4° C. with PBS until a clear solution was obtained. Two-fold serial dilutions of each peptide in PBS from 0.5 μg/ml to 256 μg/ml were incubated with 0.25% (v/v) hRBC suspension at 37° C. for 1 h, and then centrifuged for 5 min at 3500 rpm in 96-well plate. 50 μl of the supernatant from each well was diluted with 50 μl pure water, and the OD at 415 nm was measured using microplate reader. Melittin at the same concentrations (200 μg/ml for complete lysis) was used as a positive control. Percent hemolysis was calculated according to the equation: […]
where complete hemolysis was defined as the average hemolysis of all wells containing a final concentration of melittin ranging from 50 to 400 μg/ml. Experiments were performed as triplicates at different days.

[10] = tested on: cell wall biosynthesis in S. aureus; experiment: Accumulation of UDP-N-acetylmuramyl-pentapeptide precursor; type: cell-based; details: 10-fold MIC, 1 h
From the text: We next examined the effect of P14 and P15 on cell wall biosynthesis in live bacteria. Blockade of this biosynthetic pathway causes accumulation of the water soluble intracellular intermediate lipid II precursor UDP-MurNAc-L-Ala-D-γ-Glu-L-Lys-D-Ala-D-Ala.^40 This intermediate is detectable after extraction from the cytosol in response to antibiotic administration by chromatographic methods.
Accumulation of UDP-N-acetylmuramyl-pentapeptide precursor from S. aureus Accumulation of peptidoglycan precursor of S. aureus […] was analyzed in the presence of peptide antibiotics. Bacteria were grown at 37° C. till OD600 of 0.5 was attained. Ten times MICs of peptide antibiotics were added per ml of grown bacterial culture and allowed to stand for 1 h. After cooling the cells on ice, they were harvested by centrifugation at 4° C. for 15 min. Bacterial cells were suspended in distilled water, and then slowly stirred into boiling water for 15 min. The suspension was allowed to cool first at room temperature, then on ice. After centrifugation at 4° C. for 1 h, the supernatant was lyophilized. The lyophilized sample was dissolved in water, and pH was adjusted to 2 by addition of 20% H3PO4. The white precipitate was removed by centrifugation, and the supernatant was immediately subjected to RP-HPLC analysis and MWs were assessed by MALDI-TOF mass spectroscopy.

[11] = tested on: S. aureus; experiment: Time-kill kinetic assay; type: cell-based; details: 10×MIC, 5×MICs
Protocol: The bacteria-killing kinetics of peptides with S. aureus was measured at 5×MICs, and vancomycin was used as a positive control. An overnight culture of bacterial cells was re-suspended in fresh MH broth at density of 10^7 cells/ml, and cultured with peptides at 37° C. Viable colony forming units (CFUs) were counted by performing tenfold serial dilutions of the aliquot sample at intervals of 0, 1, 2, 4, 8, 12, and 24 hours after inoculation, and plated on MHB agar plates. Time-kill curves were plotted as Log10 (cfu ml^−1) versus time functions.

[12] = Table 6, high level vancomycin resistant E. faecium ATCC51559
[13] = Table 6, low level vancomycin resistant E. faecium ATCC51299
[14] = Table 5, high level vancomycin resistant E. faecium ATCC 51559
[15] = Table 5, E. faecalis ATCC 29121

CC(C)[C@H]1NC(=O)CNC(=O)[C@@H](Cc2ccccc2)NC(=O)[C@H]2CSCc3cc(cc(c3)CSC[C@H](C(N)=O)NC(=O)[C@@H](CO)NC(=O)[C@@H](CCC(N)=O)NC1=O)CSC[C@@H](N)C(=O)NCC(=O)N[C@H](C)C(=O)N[C@H](CCC(N)=O)C(=O)NCC(=O)N2 [P20, CGAQGCFGVQSC] (H-[dC]G[dA][dQ]G[dC][dF]G[dV][dQ][dS][dC]-NH2; linker 1-6-12 via TBMB)
MIC MRSA ([1]; Table 6, MRSA ATCC43300): 256 µg/mL (≈ 201 µM)
MIC VRE (vanA) [2, 12]: >256 µg/mL
MIC B. subtilis ([3]; Table 6, B. subtilis ATCC6633): 32 µg/mL (≈ 25.1 µM)
MIC S. aureus ([4]; Table 6, S. aureus ATCC6538): 32 µg/mL (≈ 25.1 µM)
MIC E. coli ([5]; Table 6, E. Coli ATCC25992): >256 µg/mL
MIC E. faecalis ([6]; Table 6, E. faecalis ATCC29121): 256 µg/mL (≈ 201 µM)
MIC VRE (vanB) [7, 13]: 256 µg/mL (≈ 201 µM)

CGGGICRTHNC [P18]
MIC MRSA ([1]; Table 6, MRSA ATCC43300): 32 µg/mL
MIC VRE (vanA) [2, 12]: >256 µg/mL
MIC B. subtilis ([3]; Table 6, B. subtilis ATCC6633): 16 µg/mL
MIC S. aureus ([4]; Table 6, S. aureus ATCC6538): 16 µg/mL
MIC E. coli ([5]; Table 6, E. Coli ATCC25992): >256 µg/mL
MIC E. faecalis ([6]; Table 6, E. faecalis ATCC29121): 128 µg/mL
activity against vanB / low-level vancomycin-resistant strain [7]: moderate activity
MIC VRE (vanB) [7, 13]: 128 µg/mL
activity against vancomycin-sensitive bacterial strains [8]: excellent activity
lysis / toxicity on red blood cells [9]: neither caused lysis of erythrocytes

CQTDVCQRTIC ([dC][dQ][dT][dD][dV][dC][dQ][dR][dT][dI][dC]; not fully specified (bridges); also: bicyclic, ring places and kind not given here) [P14, bicyclic D-peptide (library BC-A)]
MIC against MRSA [1]: 32 µg/mL
activity against vanA / high-level vancomycin-resistant strain [2]: high antibacterial activity
MIC VRE (vanA) [2, 14]: 128 µg/mL
MIC B. subtilis ([3]; Table 5, B. subtilis ATCC 6633): 8 µg/mL
MIC against S. aureus [4]: 8 µg/mL
MIC E. coli ([5]; Table 5, E. coli ATCC 25992): >256 µg/mL
MIC E. faecalis [6, 15]: 32 µg/mL
MIC against vanB vancomycin-resistant Enterococci [7]: 32 µg/mL
activity against vanB / low-level vancomycin-resistant strain [7]: high antibacterial activity
accumulation of UDP-MurNAc-pentapeptide [10]: accumulation of UDP-MurNAc-pentapeptide at levels similar to vancomycin
activity against vancomycin-sensitive bacterial strains [8]: high antibacterial activity
lysis / toxicity on red blood cells [9]: neither caused lysis of erythrocytes
killing kinetics / bactericidal activity [11]: bactericidal activity similar to vancomycin

CSLITQCGGVGC ([dC][dS][dL][dI][dT][dQ][dC]GG[dV]G[dC]; not fully specified (bridges); also: bicyclic, ring places and kind not given here) [P15, bicyclic D-peptide (library BC-B)]
MIC MRSA ([1]; Table 5, MRSA ATCC 43300): 32 µg/mL
MIC VRE (vanA) [2, 14]: >256 µg/mL
MIC B. subtilis ([3]; Table 5, B. subtilis ATCC 6633): 8 µg/mL
MIC S. aureus ([4]; Table 5, S. aureus ATCC 6538): 8 µg/mL
MIC E. coli ([5]; Table 5, E. coli ATCC 25992): >256 µg/mL
MIC E. faecalis [6, 15]: 16 µg/mL
MIC VRE (vanB) ([7]; Table 5, low level vancomycin resistant E. faecium ATCC 51299): 128 µg/mL
accumulation of UDP-MurNAc-pentapeptide [10]: accumulation of UDP-MurNAc-pentapeptide at levels similar to vancomycin
activity against vancomycin-sensitive bacterial strains [8]: similarly high activity as P14
lysis / toxicity on red blood cells [9]: neither caused lysis of erythrocytes
killing kinetics / bactericidal activity [11]: bactericidal activity similar to vancomycin
